Assay results taken from article PMC9234961 (Journal of Medicinal Chemistry, 2022).
Several values for one entry are separate records, joined by “and”; a condition that tells them apart may be missing. Equal entries are not always repeated. Where two headings read alike, the source gives them in different places.

Assays:
[1] = tested on: HT DLBCL xenograft; test: Efficacy study in HT DLBCL xenograft model; format: in vivo, mouse
Experimental: single treatment of vehicle.
7.3.3 Preparation of HT Cells […]
subcultured 1:4 every 3-4 days. […]
pharmacokinetic analysis (PK).
7.3.6 Tumour lysis and Wes method
Lysates were incubated on
Samples were stored at -80 °C until use.
Data was analysed using Compass for SW software. BCL6

[2] = target: human BCL6 BTB domain (Homo sapiens, UniProt P41182); test: biochemical; conditions: BCL6 TR-FRET IC50 individual replicates, single replicate values
Experimental: Assays were performed in a 384-well black Proxiplate (Perkin Elmer) containing 1 nM Trx-6xHis-BCL6 (in
anti-6xHis-Terbium cryptate (CisBio Bioassays, France), in assay buffer (25 mM Hepes pH8, 100 mM NaCl,
0.05% Tween20, 0.5 mM TCEP, 0.05% bovine serum albumin). Test compounds in DMSO or DMSO alone
were added to the wells using an ECHO550 acoustic dispenser (Labcyte Inc) to give the appropriate test
concentration in 0.7% v/v DMSO final. After 2 hours incubation at room temperature the plate was read
The % inhibition at each concentration was calculated by normalising FRET ratio to the
appropriate high (DMSO with all reagents) and low (DMSO without BCL6) controls. IC50 values were
determined using GraphPad Prism 6.0 or Dotmatics (Bishops Stortford, UK) software by fitting the
normalised data to a sigmoidal four-parameter logistic fit equation.

[3] = target: endogenous BCL6 in OCI-Ly1 cells (Homo sapiens, UniProt P41182); test: cell-based
[4] = in vitro; format: in vitro ADME; conditions: BALB/c; mouse plasma, rapid equilibrium dialysis; read-out: mouse (BALB\c) PPB (converted)
[5] = tested on: OCI-Ly1; test: Cell proliferation assay (14 days), OCI-Ly1
Experimental: (§2) Cells were seeded in 96-well culture plates at a density of 2500 cells/well in RPMI-1640 medium (Sigma-
(§3) Aldrich) supplemented with 10% FBS (Gibco). Compounds were initially dispensed into 96-well U-bottom
(§4) plates using an Echo 550 acoustic dispenser (Labcyte Inc.), then diluted in RPMI-1640 medium and
(§5) transferred onto the cells. Cells were treated with 8 compound concentrations in duplicate, ranging from
(§6) with compound for 14 days, with medium changes at days 3, 7 and 10 carried out as follows: fresh 96-well
(§7) cell culture plates were prepared containing 100 µl medium plus compound at the assay concentrations
(§8) (white plates were used on day 10 to optimise luminescence measurement). Assay plates containing cells
(§9) were vortexed to mix and cell density in one control well was counted using a Coulter Z2 cell counter
(§10) (Beckman Coulter). The volume of medium containing 2500 cells in the control well was calculated and this volume of cells was transferred from every well of the assay plates to the corresponding well of the fresh plates containing compound. After 14 days, CellTiter Glo reagent (Promega) was added to the medium in each well of the assay plate at a ratio of 1:2, mixed on a plate shaker, then incubated at room temperature for 10 minutes. Luminescence was measured using an Envision plate reader (Perkin Elmer) and the relative luminescence at each compound concentration, compared to DMSO alone, was calculated. GI50 were determined using a 4-parameter curve fit in Dotmatics (Bishops Stortford, UK).

[6] = target: T1, CNR2 (Homo sapiens, UniProt P34972); test: SAFETYScan GPCR cAMP, Agonist; format: cell-based
T1 construct: expressed in transfected cells
Source text: (§1) Supplement jm1c02175_si_002.xlsx, sheet "SAFETYScan" | column: RC50 (uM); Max Response

[7] = target: T2, ADRB2 (Homo sapiens, UniProt P07550); test: SAFETYScan GPCR cAMP, Agonist; format: cell-based
T2 construct: expressed in transfected cells
Source text: as §1

[8] = target: T3, HTR1A (Homo sapiens, UniProt P08908); test: SAFETYScan GPCR cAMP, Agonist; format: cell-based
T3 construct: expressed in transfected cells
T3 sequence (P08908 1-422): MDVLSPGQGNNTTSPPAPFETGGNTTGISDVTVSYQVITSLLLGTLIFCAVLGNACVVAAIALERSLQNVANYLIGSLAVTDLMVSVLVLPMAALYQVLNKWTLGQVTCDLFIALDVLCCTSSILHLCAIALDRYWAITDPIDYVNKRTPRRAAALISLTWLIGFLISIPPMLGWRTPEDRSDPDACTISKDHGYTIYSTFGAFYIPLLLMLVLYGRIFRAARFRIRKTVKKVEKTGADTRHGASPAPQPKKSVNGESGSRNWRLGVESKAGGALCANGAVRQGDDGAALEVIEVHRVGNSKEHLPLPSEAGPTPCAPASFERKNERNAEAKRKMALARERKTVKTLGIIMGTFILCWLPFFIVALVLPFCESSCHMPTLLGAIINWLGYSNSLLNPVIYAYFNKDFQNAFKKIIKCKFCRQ
Source text: as §1

[9] = target: T4, DRD2S (Homo sapiens, UniProt P14416); test: SAFETYScan GPCR cAMP, Agonist; format: cell-based
T4 construct: expressed in transfected cells
Source text: as §1

[10] = target: T5, HRH2 (Homo sapiens, UniProt P25021); test: SAFETYScan GPCR cAMP, Agonist; format: cell-based
T5 construct: expressed in transfected cells
Source text: as §1

[11] = target: T6, DRD1 (Homo sapiens, UniProt P21728); test: SAFETYScan GPCR cAMP, Agonist; format: cell-based
T6 construct: expressed in transfected cells
Source text: as §1

[12] = target: T7, CHRM2 (Homo sapiens, UniProt P08172); test: SAFETYScan GPCR cAMP, Agonist; format: cell-based
T7 construct: expressed in transfected cells
T7 sequence (P08172 1-466): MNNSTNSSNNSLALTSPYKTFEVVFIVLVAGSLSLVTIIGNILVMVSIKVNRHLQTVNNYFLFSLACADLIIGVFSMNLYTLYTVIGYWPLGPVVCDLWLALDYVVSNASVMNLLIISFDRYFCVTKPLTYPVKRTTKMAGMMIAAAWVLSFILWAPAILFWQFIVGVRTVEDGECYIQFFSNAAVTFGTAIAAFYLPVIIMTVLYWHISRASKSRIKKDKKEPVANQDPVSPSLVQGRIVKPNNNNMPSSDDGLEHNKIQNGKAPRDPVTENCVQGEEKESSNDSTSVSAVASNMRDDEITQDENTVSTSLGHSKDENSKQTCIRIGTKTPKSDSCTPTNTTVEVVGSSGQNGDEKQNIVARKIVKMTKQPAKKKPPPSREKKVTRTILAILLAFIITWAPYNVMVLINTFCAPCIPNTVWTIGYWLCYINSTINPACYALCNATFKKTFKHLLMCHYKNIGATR
Source text: as §1

[13] = target: OPRK1 (Homo sapiens, UniProt P41145); test: SAFETYScan GPCR cAMP, Agonist; format: cell-based
Source text: as §1

[14] = target: T8, ADRB1 (Homo sapiens, UniProt P08588); test: SAFETYScan GPCR cAMP, Agonist; format: cell-based
T8 construct: expressed in transfected cells
Source text: as §1

[15] = tested on: SU-DHL-4; test: Cell proliferation assay (14 days), SU-DHL-4
Experimental: as §2, §3, §4, §5, §6, §7, §8, §9, §10

T2 sequence (P07550 whole entry): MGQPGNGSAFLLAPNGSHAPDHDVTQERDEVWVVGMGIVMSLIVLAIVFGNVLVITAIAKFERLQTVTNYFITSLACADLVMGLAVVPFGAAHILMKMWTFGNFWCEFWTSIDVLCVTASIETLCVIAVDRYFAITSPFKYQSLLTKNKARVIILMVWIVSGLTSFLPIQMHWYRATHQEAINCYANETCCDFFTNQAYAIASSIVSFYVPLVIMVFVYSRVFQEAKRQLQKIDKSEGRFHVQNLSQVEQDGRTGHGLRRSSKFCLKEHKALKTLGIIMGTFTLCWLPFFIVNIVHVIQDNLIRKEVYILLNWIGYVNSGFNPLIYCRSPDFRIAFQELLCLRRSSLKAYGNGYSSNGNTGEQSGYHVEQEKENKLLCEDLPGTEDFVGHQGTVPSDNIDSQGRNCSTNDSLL
T6 sequence (P21728 whole entry): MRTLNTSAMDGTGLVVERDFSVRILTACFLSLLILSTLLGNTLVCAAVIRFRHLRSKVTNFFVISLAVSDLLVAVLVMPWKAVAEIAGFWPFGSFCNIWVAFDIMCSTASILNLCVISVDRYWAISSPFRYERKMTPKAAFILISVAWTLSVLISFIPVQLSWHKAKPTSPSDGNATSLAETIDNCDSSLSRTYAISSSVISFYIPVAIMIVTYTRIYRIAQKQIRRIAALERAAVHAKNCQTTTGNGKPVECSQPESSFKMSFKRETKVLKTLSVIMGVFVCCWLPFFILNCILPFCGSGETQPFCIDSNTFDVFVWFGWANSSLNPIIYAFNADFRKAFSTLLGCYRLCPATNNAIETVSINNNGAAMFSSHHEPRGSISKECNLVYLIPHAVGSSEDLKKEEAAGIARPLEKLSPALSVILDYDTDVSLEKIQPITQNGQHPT
T1 sequence (P34972 whole entry): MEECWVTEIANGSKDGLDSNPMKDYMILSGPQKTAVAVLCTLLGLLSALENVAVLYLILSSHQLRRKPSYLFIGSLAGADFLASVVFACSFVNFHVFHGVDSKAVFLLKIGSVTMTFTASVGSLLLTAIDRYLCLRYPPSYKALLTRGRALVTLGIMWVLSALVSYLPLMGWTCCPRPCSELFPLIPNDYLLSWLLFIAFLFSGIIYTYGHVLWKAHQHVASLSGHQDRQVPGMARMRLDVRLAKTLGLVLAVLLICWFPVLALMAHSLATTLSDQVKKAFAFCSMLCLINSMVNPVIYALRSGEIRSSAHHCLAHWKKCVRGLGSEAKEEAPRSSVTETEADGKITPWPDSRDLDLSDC
T5 sequence (P25021 whole entry): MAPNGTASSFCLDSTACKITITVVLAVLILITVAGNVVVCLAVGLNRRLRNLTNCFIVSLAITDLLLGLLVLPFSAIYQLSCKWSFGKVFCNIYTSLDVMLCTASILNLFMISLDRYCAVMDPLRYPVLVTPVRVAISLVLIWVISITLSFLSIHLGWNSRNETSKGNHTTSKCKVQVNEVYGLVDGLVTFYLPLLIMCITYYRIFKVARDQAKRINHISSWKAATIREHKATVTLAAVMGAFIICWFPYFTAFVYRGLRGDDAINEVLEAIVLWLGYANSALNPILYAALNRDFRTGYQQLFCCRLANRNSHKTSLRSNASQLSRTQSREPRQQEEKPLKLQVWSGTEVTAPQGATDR
T4 sequence (P14416 1-414 isoform P14416-2): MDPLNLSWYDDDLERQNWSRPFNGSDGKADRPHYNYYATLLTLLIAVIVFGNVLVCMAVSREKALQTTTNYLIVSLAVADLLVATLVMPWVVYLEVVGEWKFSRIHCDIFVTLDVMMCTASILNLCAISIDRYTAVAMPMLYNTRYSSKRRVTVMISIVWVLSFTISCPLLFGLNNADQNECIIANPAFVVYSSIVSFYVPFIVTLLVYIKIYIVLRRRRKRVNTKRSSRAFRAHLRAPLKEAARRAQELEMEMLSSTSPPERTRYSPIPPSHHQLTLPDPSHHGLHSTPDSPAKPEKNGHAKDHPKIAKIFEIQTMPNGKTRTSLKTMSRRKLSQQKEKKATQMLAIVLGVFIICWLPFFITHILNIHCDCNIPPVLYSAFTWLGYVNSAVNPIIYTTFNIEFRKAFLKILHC
Sequence of OPRK1 (P41145 whole entry, species assumed): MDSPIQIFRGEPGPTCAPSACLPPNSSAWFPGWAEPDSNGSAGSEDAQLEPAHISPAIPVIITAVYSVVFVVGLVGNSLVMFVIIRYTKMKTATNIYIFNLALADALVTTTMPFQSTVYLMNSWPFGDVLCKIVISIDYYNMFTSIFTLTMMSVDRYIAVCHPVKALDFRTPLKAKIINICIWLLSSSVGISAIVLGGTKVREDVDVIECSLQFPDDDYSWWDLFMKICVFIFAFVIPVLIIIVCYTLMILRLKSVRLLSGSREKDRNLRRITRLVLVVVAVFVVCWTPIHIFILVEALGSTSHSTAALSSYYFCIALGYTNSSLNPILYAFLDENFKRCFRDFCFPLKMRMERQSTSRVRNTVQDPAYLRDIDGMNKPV
T8 sequence (P08588 whole entry): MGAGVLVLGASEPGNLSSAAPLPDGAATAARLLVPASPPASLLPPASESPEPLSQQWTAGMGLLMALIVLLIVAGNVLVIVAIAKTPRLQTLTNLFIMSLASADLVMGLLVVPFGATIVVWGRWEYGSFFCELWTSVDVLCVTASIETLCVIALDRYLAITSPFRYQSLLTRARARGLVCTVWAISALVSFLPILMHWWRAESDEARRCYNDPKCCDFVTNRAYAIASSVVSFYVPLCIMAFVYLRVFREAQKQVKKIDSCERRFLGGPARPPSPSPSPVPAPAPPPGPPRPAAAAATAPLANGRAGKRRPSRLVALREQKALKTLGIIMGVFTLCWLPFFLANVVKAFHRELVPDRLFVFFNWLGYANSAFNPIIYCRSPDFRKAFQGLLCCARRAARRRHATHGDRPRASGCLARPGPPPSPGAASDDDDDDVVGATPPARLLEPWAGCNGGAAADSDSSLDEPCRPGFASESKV

Which results are given for C[C@H]1C[C@@H](O)CN(c2ncc(Cl)c(Nc3ccc4c(c3)c3c(c(=O)n4C)OCC(F)(F)[C@H](C4CC4)N3)n2)C1 [12a CCT373566, (S)-10-((5-Chloro-2-((3R,5S)-3-hydroxy-5-methylpiperidin-1-yl)pyrimidin-4-yl)amino)-2-cyclopropyl-3,3-difluoro-7-methyl-1,2,3,4-tetrahydro-[1,4]oxazepino[2,3-c]quinolin-6(7H)-one]?
T/C ([1]; 50 mg/kg BID, 22 days): 60%; BCL6 levels after the last dose ([1]; 50 mg/kg po bid for 22 days, 4 h and 12 h after last dose): remained decreased 4 h and 12 h after the last dose; body weight ([1]; 50 mg/kg po bid, 22 days): No body weight losses were observed; tumor growth compared to the vehicle control group ([1]; 50 mg/kg po bid, 22 days): modest decrease in tumor growth; IC50 [2]: 3.8 nM and 1.9 nM and 1.7 nM and 2.6 nM (3×) and 2.4 nM and 2.9 nM and 1.8 nM (3×) and 1.2 nM and 2.7 nM; Dmax ([3]; OCI-Ly1, read-out: MSD degrader assay [OCI-LY1] Dmax individual replicates, single replicate values): 89.8%; Dmax ([3]; OCI-Ly1, read-out: MSD degrader assay [OCI-Ly1] Dmax, mean maximal degradation of BCL6, OCI-Ly1 cells, 2 h): 91.5%; degradation of BCL6 (in words) ([3]; OCI-Ly1 MSD assay): potently degrading isomer; MSD degrader assay [OCI-Ly1] DC50 ([3]; geometric mean, OCI-Ly1 cells, 2 h incubation): sub-nanomolar; MSD degrader assay [OCI-Ly1] Dmax ([3]; mean maximal degradation of BCL6, OCI-Ly1 cells, 2 h): > 90%; MSD degrader assay [OCI-LY1] pDC50 mean ([3]; mean of replicates): 9.1465; DC50 ([3]; read-out: Calculated free DC50 [OCI-Ly1], DC50 corrected with fu,media): 0.088 nM; DC50 ([3]; read-out: MSD degrader assay [OCI-LY1] DC50 individual replicates, single replicate values): 1 nM and 0.9 nM (4×) and 1.5 nM and 0.5 nM (2×) and 0.8 nM and 1.2 nM and 0.3 nM and 0.6 nM (3×) and 0.4 nM (2×) and 1.3 nM; DC50 ([3]; read-out: MSD degrader assay [OCI-Ly1] DC50, geometric mean, OCI-Ly1 cells, 2 h incubation): 0.7 nM; MSD degrader assay [OCI-LY1] Dmax individual replicates ([3]; single replicate values): 90.3% and 91.7% and 95.3% (2×) and 94.5% and 93.1% and 94.4% and 94.1% and 92.7% and 96.2% and 84.1% and 84.0% and 89.6% and 88.7% and 89.5% and 92.4%; fraction unbound [4]: 0.0012; OCI-Ly1 GI50 ([5]; 14-day proliferation assay): Very potent growth inhibition; GI50 ([5]; Homo sapiens, OCI-Ly1, 336 h, read-out: OCI-Ly1 GI50): 0.0021 µM; Emax ([6]; read-out: Max Response): 0%; EC50 ([6]; read-out: RC50 (EC50)): > 10 µM; Emax ([7]; read-out: Max Response): 0%; EC50 ([7]; read-out: RC50 (EC50)): > 10 µM; Emax ([8]; read-out: Max Response): 12.5%; EC50 ([8]; read-out: RC50 (EC50)): > 10 µM; Emax ([9]; read-out: Max Response): 1.64%; EC50 ([9]; read-out: RC50 (EC50)): > 10 µM; Emax ([10]; read-out: Max Response): 0%; EC50 ([10]; read-out: RC50 (EC50)): > 10 µM; Emax ([11]; read-out: Max Response): 0%; EC50 ([11]; read-out: RC50 (EC50)): > 10 µM; Emax ([12]; read-out: Max Response): 15%; EC50 ([12]; read-out: RC50 (EC50)): > 10 µM; Emax ([13]; read-out: Max Response): 37.1%; EC50 ([13]; read-out: RC50 (EC50)): > 10 µM; Emax ([14]; read-out: Max Response): 0%; EC50 ([14]; read-out: RC50 (EC50)): > 10 µM; SU-DHL-4 GI50 ([15]; 14-day proliferation assay): Very potent growth inhibition; GI50 ([15]; Homo sapiens, SU-DHL-4, 336 h, read-out: SU-DHL-4 GI50): 0.0125 µM
